US20230263757A1, “DISINFECTING WIPE KIT FOR CENTRAL VENOUS ACCESS DEVICES” (SterileCare Inc., priority 2022, published 2023)

What was measured:
S. epidermidis SK9 [1] = assay: Checkerboard, FMCI; assay type: cell-based, Staphylococcus epidermidis; conditions: for microbicidal concentration in combination: EDTA + ethanol
Description: (§1) An assay was made using a minimum inhibitory concentration (MIC) and minimum bactericidal concentration (MBC) and minimum fungicidal concentration (MFC) determination. The MIC was determined by the micro broth dilution method in 96-well plates. Serial two-fold dilutions of tetrasodium EDTA (from 2% to 0.015%), ethanol (from 50% to 0.1%) and chlorhexidine HCl (from 100 μg/mL to 0.025 μg/mL) were prepared in MH broth with a final volume of 90 μL per well. A 10 μL containing 1×10^5 bacterial cells or 2×10^3 fungal cells were added to each well. The inoculated plates were covered with a lid, sealed with Parafilm, and incubated for 24 h at 37° C. with slight rocking on a tilting platform shaker. After incubation, the optical density at 600 nm (OD 600) of the cultures in each well was measured using an xMark™ Microplate Absorbance Spectrophotometer (Bio-Rad). […] MBCs and MFCs were determined by transferring 100 μL from each well with no apparent growth onto appropriate agar plates, followed by incubation for 24 h at 37° C.
(§2) A fourth composition and solution included tetrasodium EDTA with ethanol or chlorhexidine HCl. This fourth composition and solution were created using checkerboard titration methods using micro broth dilution in 96-well microtiter plates. The concentrations of antimicrobials used were based on previously determined MIC values. Briefly, 200 μL, of two-fold dilutions of tetrasodium EDTA and ethanol or chlorhexidine HCl were prepared in MH or MH II broth with standardized cell suspension. […] Microtiter plates were incubated at 37° C. for 24 h, and the results were analyzed. Each test was performed in duplicate and included a growth control without adding any antimicrobials.

MRSA ON184 [2] = assay: FBEC index, checkerboard on biofilms; assay type: cell-based, S. aureus; conditions: for biofilm eradication concentration in combination (FBEC): EDTA + ethanol
Description: (§3) In step (4), microtiter plates are incubated at 37° C. for 24 h. then (6), after incubation, the bacterial and fungal cells were dislodged from the pegs into the recovery medium described above.
(§4) Three 10-μL aliquots, for a total of 30 μL from each well of recovery medium, were spotted on MH agar plates and incubated for 24 h at 37° C. […] The FBEC determination is a modification of the FICI.

E. coli SK2 [3] = assay: MBC/MFC determination; assay type: cell-based, Escherichia coli; conditions: alone
Description: as §1

Candida albicans SK4b [4] = assay: FBEC index, checkerboard on biofilms; assay type: cell-based; conditions: for biofilm eradication concentration in combination (FBEC): EDTA + ethanol
Description: as §3, §4

[5] = tested on: Staphylococcus epidermidis SK9; assay: FBEC index, checkerboard on biofilms; assay type: cell-based; conditions: for biofilm eradication concentration in combination (FBEC): EDTA + ethanol
Description: as §3, §4

[6] = tested on: 48-h-old biofilms of all of the test organisms; assay: Rapid biofilm eradication, 2-h exposure; assay type: cell-based; conditions: two h of exposure; preformed biofilms
Description: Determining rapid biofilm eradication by tetrasodium EDTA, ethanol, and chlorhexidine HCl alone and in combination was performed. After biofilm formation, control pegs (n=6) were removed and analyzed to determine the starting biofilm cell numbers via the drop dilution method. The 48-h old biofilms on the pegs were exposed to different concentrations of test antimicrobials, dissolved in an appropriate growth medium, for two h to evaluate their efficacy alone and in combination. Antimicrobial solutions tested against each organism included each agent alone at the MBEC, double combinations at the FBEC, and triple combinations ranging from 5 to 20% ethanol, 2.5-5 μg/mL chlorhexidine HCl and 1-3% tetrasodium EDTA. Following treatment, pegs were washed twice with sterile PBS, and the biofilm cells were dislodged into recovery medium and enumerated as described above.
The method for rapid biofilm eradication ability of test antimicrobials alone and in combination against 48-h-old biofilms within two h exposure time included (1) choosing different concentrations of test antimicrobials to assess their potency in eradicating preformed biofilms of study organisms within two h. Then (2) the quantitative recovery from biofilms following exposure to the antimicrobial solutions for bacterial strains (FIGS. 9A-9B) and fungal strains (FIG. 5) was evaluated.

Escherichia coli SK2 = assay: FBEC index, checkerboard on biofilms; assay type: cell-based; conditions: for biofilm eradication concentration in combination (FBEC): EDTA + ethanol
Description: as §3, §4

Candida albicans SK4b [7] = assay: Checkerboard, FMCI; assay type: cell-based; conditions: for microbicidal concentration in combination: EDTA + ethanol
Description: as §1, §2

[8] = tested on: Staphylococcus epidermidis ON170; assay: Checkerboard, FMCI; assay type: cell-based; conditions: for microbicidal concentration in combination: EDTA + ethanol
Description: as §1, §2

Serratia marcescens SK2 = assay: Checkerboard, FMCI; assay type: cell-based; conditions: for microbicidal concentration in combination: EDTA + ethanol
Description: as §1, §2

Escherichia coli ON29 = assay: Checkerboard, FMCI; assay type: cell-based; conditions: for microbicidal concentration in combination: EDTA + ethanol
Description: as §1, §2

[9] = tested on: Staphylococcus aureus ON89; assay: Checkerboard, FMCI; assay type: cell-based; conditions: for microbicidal concentration in combination: EDTA + ethanol
Description: as §1, §2

Proteus mirabilis ON153 = assay: Checkerboard, FMCI; assay type: cell-based; conditions: for microbicidal concentration in combination: EDTA + ethanol
Description: as §1, §2

[10] = tested on: Stenotrophomonas maltophilia ON17; assay: Checkerboard, FMCI; assay type: cell-based; conditions: for microbicidal concentration in combination: EDTA + ethanol
Description: as §1, §2

[11] = tested on: Pseudomonas aeruginosa SK1; assay: Checkerboard, FMCI; assay type: cell-based; conditions: for microbicidal concentration in combination: EDTA + ethanol
Description: as §1, §2

[12] = tested on: Pseudomonas aeruginosa SK1; assay: FBEC index, checkerboard on biofilms; assay type: cell-based; conditions: for biofilm eradication concentration in combination (FBEC): EDTA + ethanol
Description: as §3, §4

S. epidermidis SK9 [13] = assay: MBC/MFC determination; assay type: cell-based, Staphylococcus epidermidis; conditions: alone
Description: as §1

C. albicans ON47 [14] = assay: Checkerboard titration, FICI; assay type: cell-based, Candida albicans; conditions: for concentration in combination: EDTA + ethanol
Description: as §2

MRSA ON184 [15] = assay: MIC, micro broth dilution; assay type: cell-based, S. aureus; conditions: alone
Description: as §1

E. coli SK2 [16] = assay: MIC, micro broth dilution; assay type: cell-based, Escherichia coli; conditions: alone
Description: as §1

E. coli SK2 [17] = assay: Checkerboard, FMCI; assay type: cell-based, Escherichia coli; conditions: for microbicidal concentration in combination: EDTA + ethanol
Description: as §1, §2

C. albicans ON47 [18] = assay: FBEC index, checkerboard on biofilms; assay type: cell-based, Candida albicans; conditions: for biofilm eradication concentration in combination (FBEC): EDTA + ethanol
Description: as §3, §4

MRSA ON184 [19] = assay: Checkerboard, FMCI; assay type: cell-based, S. aureus; conditions: for microbicidal concentration in combination: EDTA + ethanol
Description: as §1, §2

S. epidermidis SK9 [20] = assay: Checkerboard titration, FICI; assay type: cell-based, Staphylococcus epidermidis; conditions: for concentration in combination: EDTA + ethanol
Description: as §2

O=C([O-])CN(CCN(CC(=O)[O-])CC(=O)[O-])CC(=O)[O-].[Na+].[Na+].[Na+].[Na+] [EDTA, tetrasodium EDTA]
EDTA microbicidal concentration in combination (S. epidermidis SK9 [1]; EDTA + chlorhexidine HCl): 0.008 % w/v | microbicidal concentration in combination (S. epidermidis SK9 [1]): 0.031 % w/v | EDTA biofilm eradication concentration in combination (FBEC) (MRSA ON184 [2]; EDTA + chlorhexidine HCl): 0.031 % w/v | biofilm eradication concentration in combination (FBEC) (MRSA ON184 [2]): 0.063 % w/v | MBC/MFC (E. coli SK2 [3]): 0.5 % w/v | EDTA biofilm eradication concentration in combination (FBEC) (Candida albicans SK4b [4]; EDTA + chlorhexidine HCl): 0.063 % w/v | biofilm eradication concentration in combination (FBEC) (Candida albicans SK4b [4]): 0.125 % w/v | EDTA biofilm eradication concentration in combination (FBEC) ([5]; EDTA + chlorhexidine HCl): 0.125 % w/v | biofilm eradication concentration in combination (FBEC) [5]: 0.031 % w/v | biofilm eradication at the MBEC alone [6]: failed to eradicate | EDTA biofilm eradication concentration in combination (FBEC) (Escherichia coli SK2; EDTA + chlorhexidine HCl): 0.031 % w/v | biofilm eradication concentration in combination (FBEC) (Escherichia coli SK2): 0.125 % w/v | EDTA microbicidal concentration in combination (Candida albicans SK4b [7]; EDTA + chlorhexidine HCl): 0.125 % w/v | microbicidal concentration in combination (Candida albicans SK4b [7]): 0.25 % w/v | EDTA microbicidal concentration in combination ([8]; EDTA + chlorhexidine HCl): 0.25 % w/v | microbicidal concentration in combination [8]: 0.031 % w/v | EDTA microbicidal concentration in combination (Serratia marcescens SK2; EDTA + chlorhexidine HCl): 0.125 % w/v | microbicidal concentration in combination (Serratia marcescens SK2): 0.25 % w/v | EDTA microbicidal concentration in combination (Escherichia coli ON29; EDTA + chlorhexidine HCl): 0.008 % w/v | microbicidal concentration in combination (Escherichia coli ON29): 0.25 % w/v | EDTA microbicidal concentration in combination ([9]; EDTA + chlorhexidine HCl): 0.008 % w/v | microbicidal concentration in combination [9]: 0.25 % w/v | EDTA microbicidal concentration in combination (Proteus mirabilis ON153; EDTA + chlorhexidine HCl): 0.125 % w/v | microbicidal concentration in combination (Proteus mirabilis ON153): 0.063 % w/v | EDTA microbicidal concentration in combination ([10]; EDTA + chlorhexidine HCl): 0.031 % w/v | microbicidal concentration in combination [10]: 0.125 % w/v | EDTA microbicidal concentration in combination ([11]; EDTA + chlorhexidine HCl): 0.031 % w/v | microbicidal concentration in combination [11]: 0.031 % w/v | EDTA biofilm eradication concentration in combination (FBEC) ([12]; EDTA + chlorhexidine HCl): 0.25 % w/v | biofilm eradication concentration in combination (FBEC) [12]: 0.125 % w/v | MBC/MFC (S. epidermidis SK9 [13]): 0.5 % w/v | EDTA concentration in combination (C. albicans ON47 [14]; EDTA + chlorhexidine HCl): 0.125 % w/v | concentration in combination (C. albicans ON47 [14]): 0.25 % w/v | MIC (MRSA ON184 [15]): 0.063 % w/v | MIC (E. coli SK2 [16]): 0.5 % w/v | EDTA microbicidal concentration in combination (E. coli SK2 [17]; EDTA + chlorhexidine HCl): 0.015 % w/v | microbicidal concentration in combination (E. coli SK2 [17]): 0.25 % w/v | EDTA biofilm eradication concentration in combination (FBEC) (C. albicans ON47 [18]; EDTA + chlorhexidine HCl): 0.031 % w/v | biofilm eradication concentration in combination (FBEC) (C. albicans ON47 [18]): 0.125 % w/v | EDTA microbicidal concentration in combination (MRSA ON184 [19]; EDTA + chlorhexidine HCl): 0.125 % w/v | microbicidal concentration in combination (MRSA ON184 [19]): 0.031 % w/v | EDTA concentration in combination (S. epidermidis SK9 [20]; EDTA + chlorhexidine HCl): 0.015 % w/v | concentration in combination (S. epidermidis SK9 [20]): 0.015 % w/v

CCO [Ethanol, ethanol]
microbicidal concentration in combination (S. epidermidis SK9 [1]): 3.125 % w/v | biofilm eradication concentration in combination (FBEC) (MRSA ON184 [2]): 1.6 % w/v | MBC/MFC (E. coli SK2 [3]): 25 % w/v | biofilm eradication concentration in combination (FBEC) (Candida albicans SK4b [4]): 1.6 % w/v | biofilm eradication concentration in combination (FBEC) [5]: 1.6 % w/v | biofilm eradication at the MBEC alone [6]: failed to eradicate | biofilm eradication concentration in combination (FBEC) (Escherichia coli SK2): 1.6 % w/v | microbicidal concentration in combination (Candida albicans SK4b [7]): 3.125 % w/v | microbicidal concentration in combination [8]: 1.6 % w/v | microbicidal concentration in combination (Serratia marcescens SK2): 6.25 % w/v | microbicidal concentration in combination (Escherichia coli ON29): 6.25 % w/v | microbicidal concentration in combination [9]: 3.125 % w/v | microbicidal concentration in combination (Proteus mirabilis ON153): 6.25 % w/v | microbicidal concentration in combination [10]: 1.6 % w/v | microbicidal concentration in combination [11]: 6.25 % w/v | biofilm eradication concentration in combination (FBEC) [12]: 3.125 % w/v | MBC/MFC (S. epidermidis SK9 [13]): 12.5 % w/v | concentration in combination (C. albicans ON47 [14]): 0.4 % w/v | MIC (MRSA ON184 [15]): 6.25 % w/v | MIC (E. coli SK2 [16]): 12.5 % w/v | microbicidal concentration in combination (E. coli SK2 [17]): 6.25 % w/v | biofilm eradication concentration in combination (FBEC) (C. albicans ON47 [18]): 1.6 % w/v | microbicidal concentration in combination (MRSA ON184 [19]): 3.125 % w/v | concentration in combination (S. epidermidis SK9 [20]): 0.4 % w/v
